In patent US20260193293A1, “PEPTIDES CAPABLE OF INHIBITING PROTEIN-PROTEIN INTERACTIONS AT GABAB1A SUBUNIT AND USES THEREOF” (UNIVERSITY OF COPENHAGEN, priority 2022, published 2026):
Where two headings read alike, the source gives them in different places. Blank lines part the entries; values can stand above or below the compound they belong to. Non-standard residues stand in square brackets, D forms with d. Residues, ends and D or L forms follow the SMILES beside them. *: point of attachment. NMeS = CN[C@@H](CO)C(=O)O; Bn = c1ccc(C*)cc1

Target: Sushi domains (SD1/2) protein
Assay: Fluorescence polarization (FP) competition assay with AJAP-1probe, calculated Ki
Assay type: binding
Procedure, shortened: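 Competition against 25 nM TAMRA-labelled peptide probe binding SD1/2, in PBS pH 7.4 with 1% BSA at rt, read at 530/580 nm. IC50 from sigmoidal dose-response fits, at least triplicate; Ki calculated from IC50 using probe Kd from saturation binding.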

[1] = Table 13, peptides for affinity maturation, read-out: Ki (nM) mean ± SEM
[2] = CPP tagged peptides overview, SD1/2 binding affinity, mean ± SEM, n ≥ 3, read-out: Ki
[3] = Table 14, CPPs tagged peptides, read-out: Ki (nM) mean ± SEM
[4] = Table 1, affinity maturation, mean ± SEM, n ≥ 3, read-out: Ki
[5] = Table 10, deep mutational scanning validation variants of APPWT, read-out: Ki (nM) mean ± SEM
[6] = Table 9, Ala-, D-amino acids and N-methylation scans of PIANPWT, read-out: Ki (nM) mean ± SEM
[7] = purified peptides, read-out: Ki
[8] = Table 16, ncAAs incorporated peptides, read-out: Ki (nM) mean ± SEM

SMILES: CC[C@H](C)[C@H](NC(=O)[C@H](Cc1c[nH]c2ccccc12)NC(=O)[C@H](CC(=O)O)NC(=O)[C@H](CC(=O)O)NC(=O)[C@H](CC(=O)O)NC(=O)[C@H](CCC(=O)O)NC(=O)[C@H](CCCCN)NC(=O)[C@H](C)NC(=O)[C@H](C)NC(=O)[C@H](C)NC(=O)[C@H](CCC(=O)O)NC(=O)[C@H](CCCNC(=N)N)NC(=O)[C@H](CCCNC(=N)N)NC(=O)[C@H](CCCNC(=N)N)NC(=O)[C@H](CCCNC(=N)N)NC(=O)[C@H](CCCNC(=N)N)NC(=O)[C@H](CCCNC(=N)N)NC(=O)[C@H](CCCNC(=N)N)NC(=O)[C@H](CCCNC(=N)N)NC(C)=O)C(=O)N[C@@H](CC(=O)O)C(=O)N[C@@H](Cc1c[nH]c2ccccc12)C(=O)N[C@@H](Cc1ccc(O)cc1)C(=O)N[C@@H](CC(=O)O)C(=O)N[C@@H](CO)C(=O)N[C@@H](CC(=O)O)C(=O)N[C@@H](CC(=O)O)C(=O)N[C@@H](CC(=O)O)C(N)=O [Peptide R8-RL-16] (Ac-RRRRRRRREAAAKEDDDWIDWYDSDDD-NH2)
Ki [2]: 314 ± 4 nM
Ki [3]: 314 ± 4 nM

SMILES: CC[C@H](C)[C@H](NC(=O)[C@H](Cc1ccccc1)NC(=O)[C@H](CCC(=O)O)NC(=O)[C@@H](NC(=O)[C@H](CCC(=O)O)NC(C)=O)[C@@H](C)O)C(=O)N[C@@H](C)C(=O)N[C@@H](Cc1c[nH]c2ccccc12)C(=O)NCC(=O)N1CCC[C@H]1C(=O)N[C@H](C(=O)NCC(=O)N[C@@H](CC(=O)O)C(=O)N1CCC[C@H]1C(=O)N[C@@H](CC(=O)O)C(N)=O)[C@@H](C)O (Ac-ETEFIAWGPTGDPD-NH2)
Ki (Table 11, deep mutational scanning validation variants of AJAP-1WT, read-out: Ki (nM) mean ± SEM): 34 ± 2 nM

SMILES: CC[C@H](C)[C@H](NC(=O)[C@H](Cc1c[nH]c2ccccc12)NC(=O)[C@H](CO)NC(=O)[C@H](CC(=O)O)NC(=O)[C@H](CC(=O)O)NC(=O)[C@H](CCC(=O)O)NC(C)=O)C(=O)N[C@@H](Cc1c[nH]c2ccccc12)C(=O)N[C@@H](Cc1c[nH]c2ccccc12)C(=O)NCC(=O)N1CCC[C@H]1C(=O)N[C@H](C(=O)NCC(=O)N[C@@H](CC(=O)O)C(=O)N[C@@H](CCC(=O)O)C(=O)N[C@@H](CC(=O)O)C(N)=O)[C@@H](C)O [Peptide 27, Ac-EDDSWIWWGPTGDED-NH2] (Ac-EDDSWIWWGPTGDED-NH2)
Ki [4]: 16 ± 1 nM
Ki [1]: 16 ± 1 nM
fold better affinity than 9 (comparator printed as 9): 3.8 fold

SMILES: CC(=O)N[C@@H](CCC(=O)O)C(=O)N[C@@H](CC(=O)O)C(=O)N[C@@H](CC(=O)O)C(=O)N[C@@H](CO)C(=O)N[C@@H](CC(=O)O)C(=O)N[C@H](C(=O)N[C@@H](Cc1c[nH]c2ccccc12)C(=O)N[C@@H](Cc1c[nH]c2ccccc12)C(=O)NCC(=O)NCC(=O)N[C@@H](CO)C(=O)N[C@@H](CC(=O)O)C(=O)N[C@H](C(=O)N[C@@H](CC(=O)O)C(N)=O)[C@@H](C)O)C(C)C (Ac-EDDSDVWWGGSDTD-NH2)
Ki [5]: 204 ± 4 nM

SMILES: CC(=O)N[C@@H](CCC(=O)O)C(=O)N[C@@H](CC(=O)O)C(=O)N[C@@H](CC(=O)O)C(=O)N[C@@H](CO)C(=O)N[C@@H](CC(=O)O)C(=O)N[C@H](C(=O)N[C@@H](Cc1c[nH]c2ccccc12)C(=O)N[C@@H](Cc1c[nH]c2ccccc12)C(=O)NCC(=O)NCC(=O)N[C@@H](C)C(=O)N[C@@H](CC(=O)O)C(=O)N[C@@H](Cc1c[nH]c2ccccc12)C(=O)N[C@@H](CC(=O)O)C(N)=O)C(C)C (Ac-EDDSDVWWGGADWD-NH2)
Ki [5]: 459 ± 21 nM

SMILES: CC(=O)N[C@@H](CCC(=O)O)C(=O)N[C@@H](CC(=O)O)C(=O)N[C@@H](CC(=O)O)C(=O)N[C@@H](CO)C(=O)N[C@@H](CC(=O)O)C(=O)N[C@H](C(=O)N[C@@H](Cc1c[nH]c2ccccc12)C(=O)N[C@@H](Cc1c[nH]c2ccccc12)C(=O)NCC(=O)NCC(=O)N[C@@H](C)C(=O)N[C@@H](CC(=O)O)C(=O)N[C@@H](C)C(=O)N[C@@H](CC(=O)O)C(N)=O)C(C)C (Ac-EDDSDVWWGGADAD-NH2)
Ki (Table 7, Ala-, D-amino acids and N-methylation scans of APPWT, read-out: Ki (nM) mean ± SEM): 480 ± 8 nM

SMILES: CC[C@H](C)[C@H](NC(=O)[C@H](Cc1ccc(OCc2ccccc2)cc1)NC(=O)[C@H](CC(=O)O)NC(=O)[C@H](CC(=O)O)NC(=O)[C@H](CC(=O)O)NC(=O)[C@H](CCC(=O)O)NC(C)=O)C(=O)N[C@@H](CC(=O)O)C(=O)N[C@@H](Cc1c[nH]c2ccccc12)C(=O)NCC(=O)N1CCC[C@H]1C(=O)N[C@H](C(=O)N[C@@H](CO)C(=O)N[C@@H](CC(=O)O)C(=O)N[C@@H](CC(=O)O)C(=O)N[C@@H](CC(=O)O)C(N)=O)[C@@H](C)O [Peptide 35] (Ac-EDDDY(Bn)IDWGPTSDDD-NH2)
Ki [4]: 9.5 ± 0.3 nM
Ki [8]: 9.5 ± 0.3 nM

SMILES: CCOc1ccc(C[C@H](NC(=O)[C@H](CO)NC(=O)[C@H](CC(=O)O)NC(=O)[C@H](CC(=O)O)NC(=O)[C@H](CCC(=O)O)NC(C)=O)C(=O)N[C@H](C(=O)N[C@@H](Cc2c[nH]c3ccccc23)C(=O)N[C@@H](Cc2c[nH]c3ccccc23)C(=O)NCC(=O)NCC(=O)N[C@@H](C)C(=O)N[C@@H](CC(=O)O)C(=O)N[C@H](C(=O)N[C@@H](CC(=O)O)C(N)=O)[C@@H](C)O)C(C)C)cc1 (Ac-EDDSY(Et)VWWGGADTD-NH2)
Ki [8]: 46 ± 2 nM
Ki [7]: 46.3 nM
fold increased affinity compared to Asp207Trp (relative to Asp207Trp mutant of APPWT): 2 fold

SMILES: CC(=O)N[C@@H](CCC(=O)O)C(=O)N[C@H](C(=O)N[C@@H](CCC(=O)O)C(=O)N[C@@H](Cc1ccccc1)C(=O)N[C@@H](C)C(=O)N[C@@H](C)C(=O)N[C@@H](Cc1c[nH]c2ccccc12)C(=O)NCC(=O)N1CCC[C@H]1C(=O)N[C@H](C(=O)NCC(=O)N[C@@H](CC(=O)O)C(=O)N[C@@H](CCC(=O)O)C(=O)N[C@@H](CC(=O)O)C(N)=O)[C@@H](C)O)[C@@H](C)O [ETEFAAWGPTGDED] (Ac-ETEFAAWGPTGDED-NH2)
Ki (Table 8, in μM, read-out: Ki (nM) mean ± SEM): > 6250 nM

SMILES: CCOc1ccc(C[C@H](NC(=O)[C@H](CC(=O)O)NC(=O)[C@H](CC(=O)O)NC(=O)[C@H](CC(=O)O)NC(=O)[C@H](CCC(=O)O)NC(C)=O)C(=O)N[C@H](C(=O)N[C@@H](CC(=O)O)C(=O)N[C@@H](Cc2c[nH]c3ccccc23)C(=O)N[C@@H](Cc2ccc(O)cc2)C(=O)N[C@@H](CC(=O)O)C(=O)N[C@@H](CO)C(=O)N[C@@H](CC(=O)O)C(=O)N[C@@H](CC(=O)O)C(=O)N[C@@H](CC(=O)O)C(N)=O)[C@@H](C)CC)cc1 [Peptide 32]
Ki [4]: 5.3 ± 0.2 nM
Ki [8]: 5.3 ± 0.2 nM

SMILES: CC[C@H](C)[C@H](NC(=O)[C@H](Cc1c[nH]c2ccccc12)NC(=O)[C@H](CC(=O)O)NC(=O)[C@H](CC(=O)O)NC(=O)[C@H](CC(=O)O)NC(=O)[C@H](CCC(=O)O)NC(=O)[C@H](CO)NC(=O)CNC(=O)CNC(=O)CNC(=O)CNC(=O)[C@H](CCCNC(=N)N)NC(=O)[C@H](CCCNC(=N)N)NC(=O)[C@H](CCCNC(=N)N)NC(=O)[C@H](CCCNC(=N)N)NC(=O)[C@H](CCCNC(=N)N)NC(=O)[C@H](CCCNC(=N)N)NC(=O)[C@H](CCCNC(=N)N)NC(=O)[C@H](CCCNC(=N)N)NC(C)=O)C(=O)N[C@@H](CC(=O)O)C(=O)N[C@@H](Cc1c[nH]c2ccccc12)C(=O)NCC(=O)N1CCC[C@H]1C(=O)N[C@H](C(=O)N[C@@H](CO)C(=O)N[C@@H](CC(=O)O)C(=O)N[C@@H](CC(=O)O)C(=O)N[C@@H](CC(=O)O)C(N)=O)[C@@H](C)O [Peptide R8-FL-17] (Ac-RRRRRRRRGGGGSEDDDWIDWGPTSDDD-NH2)
Ki [2]: 140 ± 4 nM
Ki [3]: 140 ± 4 nM

The next lines start with the values.

Ki [1]: 148 ± 6 nM
SMILES: CC[C@H](C)[C@H](NC(=O)[C@H](Cc1ccccc1)NC(=O)[C@H](CCC(=O)O)NC(=O)[C@@H](NC(=O)[C@H](CCC(=O)O)NC(C)=O)[C@@H](C)O)C(=O)N[C@@H](C)C(=O)N[C@@H](Cc1c[nH]c2ccccc12)C(=O)NCC(=O)N1CCC[C@H]1C(=O)N[C@H](C(=O)N[C@H](C(=O)N[C@@H](CO)C(=O)N[C@@H](CCCNC(=N)N)C(=O)N[C@@H](CCC(=O)O)C(=O)N[C@@H](CC(=O)O)C(N)=O)C(C)C)[C@@H](C)O [ETEFIAWGPTVSRED] (Ac-ETEFIAWGPTVSRED-NH2)

Ki [6]: 1045 ± 1 nM
SMILES: CC[C@H](C)[C@H](NC(=O)[C@H](C)NC(=O)[C@H](Cc1c[nH]c2ccccc12)NC(=O)[C@@H]1CCCN1C(C)=O)C(=O)N[C@H](C(=O)N[C@@H](Cc1c[nH]c2ccccc12)C(=O)NCC(=O)N1CCC[C@H]1C(=O)N[C@H](C(=O)N[C@H](C(=O)N(C)[C@@H](CO)C(=O)N[C@@H](CCCNC(=N)N)C(=O)N[C@@H](CCC(=O)O)C(=O)N[C@@H](CC(=O)O)C(N)=O)C(C)C)[C@@H](C)O)C(C)C (Ac-PWAIVWGPTV[NMeS]RED-NH2)

Ki [7]: 465 nM
SMILES: CC[C@H](C)[C@H](NC(=O)[C@H](C)NC(=O)[C@H](Cc1c[nH]c2ccccc12)NC(=O)[C@@H]1CCCN1C(C)=O)C(=O)N[C@H](C(=O)N[C@@H](Cc1c[nH]c2ccccc12)C(=O)NCC(=O)N1CCC[C@H]1C(=O)N[C@H](C(=O)N[C@H](C(=O)N[C@@H](CO)C(=O)N[C@@H](CCCNC(=N)N)C(=O)N[C@@H](CCC(=O)O)C(=O)N[C@@H](CC(=O)O)C(=O)NCC(N)=O)C(C)C)[C@@H](C)O)C(C)C [Peptide 14] (Ac-PWAIVWGPTVSREDG-NH2)

Ki (Table 12, deep mutational scanning validation variants of PIANPWT, read-out: Ki (nM) mean ± SEM): 673 ± 7 nM
SMILES: CC[C@H](C)[C@H](NC(=O)[C@H](C)NC(=O)[C@H](CC(=O)O)NC(=O)[C@@H]1CCCN1C(C)=O)C(=O)N[C@H](C(=O)N[C@@H](Cc1c[nH]c2ccccc12)C(=O)NCC(=O)N1CCC[C@H]1C(=O)N[C@H](C(=O)N[C@H](C(=O)N[C@@H](CO)C(=O)N[C@@H](CCCNC(=N)N)C(=O)N[C@@H](CCC(=O)O)C(=O)N[C@@H](CC(=O)O)C(N)=O)C(C)C)[C@@H](C)O)C(C)C [PDAIVWGPTVSRED] (Ac-PDAIVWGPTVSRED-NH2)

Ki [6]: 911 ± 13 nM
SMILES: CC[C@H](C)[C@H](NC(=O)[C@H](C)NC(=O)[C@H](C)NC(=O)[C@@H]1CCCN1C(C)=O)C(=O)N[C@H](C(=O)N[C@@H](Cc1c[nH]c2ccccc12)C(=O)NCC(=O)N1CCC[C@H]1C(=O)N[C@H](C(=O)N[C@H](C(=O)N[C@@H](CO)C(=O)N[C@@H](CCCNC(=N)N)C(=O)N[C@@H](CCC(=O)O)C(=O)N[C@@H](CC(=O)O)C(N)=O)C(C)C)[C@@H](C)O)C(C)C [PAAIVWGPTVSRED] (Ac-PAAIVWGPTVSRED-NH2)
